Measurements published in US20250255867A1 (Kadmon Corporation, LLC, priority 2022, published 2025).

Details: Cohort 2 200 mg BID

CC(C)NC(=O)COc1cccc(-c2nc(Nc3ccc4[nH]ncc4c3)c3ccccc3n2)c1 [Belumosudil, 2-{3-[4-(1H-indazol-5-ylamino)-2-quinazolinyl]phenoxy}-N-(propan-2-yl) acetamide]
0/16: Oropharyngeal pain: Affected/At Risk | Orthopnoea: Affected/At Risk | Osteonecrosis: Affected/At Risk | Overdose: Affected/At Risk | Pain: Affected/At Risk | Palpitations: Affected/At Risk | Pericardial effusion: Affected/At Risk | Peripheral coldness: Affected/At Risk | Platelet count decreased: Affected/At Risk | Pleural effusion: Affected/At Risk | Pollakiuria: Affected/At Risk | Rash maculo-papular: Affected/At Risk | Respiratory tract infection fungal: Affected/At Risk | Respiratory tract infection: Affected/At Risk | SAE Abdominal wall haematoma, affected/at risk | SAE Acute lymphocytic leukaemia recurrent, affected/at risk | SAE Acute respiratory failure, affected/at risk | SAE Anaphylactic reaction, affected/at risk | SAE Cardiac arrest, affected/at risk | SAE Febrile neutropenia, affected/at risk | SAE Graft versus host disease in lung, affected/at risk | SAE Hypoxia, affected/at risk | SAE Influenza A virus test positive, affected/at risk | SAE Influenza like illness, affected/at risk | SAE Leukaemia recurrent, affected/at risk | SAE Lipomatosis, affected/at risk | SAE Metastases to meninges, affected/at risk | SAE Myelodysplastic syndrome, affected/at risk | SAE Obliterative bronchiolitis, affected/at risk | SAE Pericardial effusion, affected/at risk | SAE Pleural effusion, affected/at risk | SAE Pneumonia viral, affected/at risk | SAE Pregnancy of partner, affected/at risk | SAE Proteinuria, affected/at risk | SAE Small intestinal obstruction, affected/at risk | SAE Urinary retention, affected/at risk | SAE Varicella zoster virus infection, affected/at risk | Sinus pain: Affected/At Risk | Skin abrasion: Affected/At Risk | Skin papilloma: Affected/At Risk | Spinal compression fracture: Affected/At Risk | Tachycardia: Affected/At Risk | Testicular pain: Affected/At Risk | Testicular swelling: Affected/At Risk | Thoracic spinal stenosis: Affected/At Risk | Thrombocytosis: Affected/At Risk | Transfusion reaction: Affected/At Risk | Type 2 diabetes mellitus: Affected/At Risk
6: Pyrexia: # Events
3: Pain in extremity: # Events | Pneumonia: # Events | Presyncope: # Events
16 (100%) participants: Participants with TEAE
3/16: Pneumonia: Affected/At Risk | Presyncope: Affected/At Risk | Pyrexia: Affected/At Risk
2/16: Pain in extremity: Affected/At Risk | Productive cough: Affected/At Risk | Pruritus: Affected/At Risk | Sinusitis: Affected/At Risk | Squamous cell carcinoma of skin: Affected/At Risk | Upper-airway cough syndrome: Affected/At Risk
2: Pseudomonas infection: # Events | SAE Non-cardiac chest pain, # events | Squamous cell carcinoma of skin: # Events | Superior vena cava syndrome: # Events | Tremor: # Events | Upper-airway cough syndrome: # Events
1: Oedema: # Events | Oesophageal ulcer: # Events | Oral candidiasis: # Events | Osteopenia: # Events | Osteoporosis: # Events | Paraesthesia: # Events | Peripheral sensory neuropathy: # Events | Phlebitis: # Events | Photophobia: # Events | Pneumonia respiratory syncytial viral: # Events | Proteinuria: # Events | Pulmonary mass: # Events | Rash erythematous: # Events | Rash pustular: # Events | Rash: # Events | Red blood cells urine positive: # Events | Renal failure: # Events | Respiratory syncytial virus infection: # Events | Restless legs syndrome: # Events | Rosacea: # Events | SAE Acute kidney injury, # events | SAE Bacteraemia, # events | SAE Cellulitis, # events | SAE Chronic graft versus host disease in skin, # events | SAE Citrobacter infection, # events | SAE Dyspnoea, # events | SAE Embolism, # events | SAE Lacunar infarction, # events | SAE Muscular weakness, # events | SAE Pneumonia, # events | SAE Respirovirus test positive, # events | SAE Stenotrophomonas infection, # events | SAE Urinary tract infection, # events | Skin lesion: # Events | Stomatitis: # Events | Tendonitis: # Events | Thrombocytopenia: # Events | Tinea pedis: # Events | Tooth fracture: # Events | Ulcerative keratitis: # Events
9/16: Upper respiratory tract infection: Affected/At Risk
13: Upper respiratory tract infection: # Events
(100%): Total Other Adverse Events: Affected/At Risk (%)
4: Pruritus: # Events | Sinusitis: # Events
7: Productive cough: # Events
6/16: SAE total, affected/at risk
16/16: Total Other Adverse Events: Affected/At Risk
(12.5%): Pain in extremity: Affected/At Risk (%) | Productive cough: Affected/At Risk (%) | Pruritus: Affected/At Risk (%) | Sinusitis: Affected/At Risk (%) | Squamous cell carcinoma of skin: Affected/At Risk (%) | Upper-airway cough syndrome: Affected/At Risk (%)
6 (38%) participants: Participants with TESAE
0: Oropharyngeal pain: # Events | Orthopnoea: # Events | Osteonecrosis: # Events | Overdose: # Events | Pain: # Events | Palpitations: # Events | Pericardial effusion: # Events | Peripheral coldness: # Events | Platelet count decreased: # Events | Pleural effusion: # Events | Pollakiuria: # Events | Rash maculo-papular: # Events | Respiratory tract infection fungal: # Events | Respiratory tract infection: # Events | SAE Abdominal wall haematoma, # events | SAE Acute lymphocytic leukaemia recurrent, # events | SAE Acute respiratory failure, # events | SAE Anaphylactic reaction, # events | SAE Cardiac arrest, # events | SAE Febrile neutropenia, # events | SAE Graft versus host disease in lung, # events | SAE Hypoxia, # events | SAE Influenza A virus test positive, # events | SAE Influenza like illness, # events | SAE Leukaemia recurrent, # events | SAE Lipomatosis, # events | SAE Metastases to meninges, # events | SAE Myelodysplastic syndrome, # events | SAE Obliterative bronchiolitis, # events | SAE Pericardial effusion, # events | SAE Pleural effusion, # events | SAE Pneumonia viral, # events | SAE Pregnancy of partner, # events | SAE Proteinuria, # events | SAE Small intestinal obstruction, # events | SAE Urinary retention, # events | SAE Varicella zoster virus infection, # events | Sinus pain: # Events | Skin abrasion: # Events | Skin papilloma: # Events | Spinal compression fracture: # Events | Tachycardia: # Events | Testicular pain: # Events | Testicular swelling: # Events | Thoracic spinal stenosis: # Events | Thrombocytosis: # Events | Transfusion reaction: # Events | Type 2 diabetes mellitus: # Events
(18.75%): Pneumonia: Affected/At Risk (%) | Presyncope: Affected/At Risk (%) | Pyrexia: Affected/At Risk (%)
1/16: Oedema: Affected/At Risk | Oesophageal ulcer: Affected/At Risk | Oral candidiasis: Affected/At Risk | Osteopenia: Affected/At Risk | Osteoporosis: Affected/At Risk | Paraesthesia: Affected/At Risk | Peripheral sensory neuropathy: Affected/At Risk | Phlebitis: Affected/At Risk | Photophobia: Affected/At Risk | Pneumonia respiratory syncytial viral: Affected/At Risk | Proteinuria: Affected/At Risk | Pseudomonas infection: Affected/At Risk | Pulmonary mass: Affected/At Risk | Rash erythematous: Affected/At Risk | Rash pustular: Affected/At Risk | Rash: Affected/At Risk | Red blood cells urine positive: Affected/At Risk | Renal failure: Affected/At Risk | Respiratory syncytial virus infection: Affected/At Risk | Restless legs syndrome: Affected/At Risk | Rosacea: Affected/At Risk | SAE Acute kidney injury, affected/at risk | SAE Bacteraemia, affected/at risk | SAE Cellulitis, affected/at risk | SAE Chronic graft versus host disease in skin, affected/at risk | SAE Citrobacter infection, affected/at risk | SAE Dyspnoea, affected/at risk | SAE Embolism, affected/at risk | SAE Lacunar infarction, affected/at risk | SAE Muscular weakness, affected/at risk | SAE Non-cardiac chest pain, affected/at risk | SAE Pneumonia, affected/at risk | SAE Respirovirus test positive, affected/at risk | SAE Stenotrophomonas infection, affected/at risk | SAE Urinary tract infection, affected/at risk | Skin lesion: Affected/At Risk | Stomatitis: Affected/At Risk | Superior vena cava syndrome: Affected/At Risk | Tendonitis: Affected/At Risk | Thrombocytopenia: Affected/At Risk | Tinea pedis: Affected/At Risk | Tooth fracture: Affected/At Risk | Tremor: Affected/At Risk | Ulcerative keratitis: Affected/At Risk
(0%): Oropharyngeal pain: Affected/At Risk (%) | Orthopnoea: Affected/At Risk (%) | Osteonecrosis: Affected/At Risk (%) | Overdose: Affected/At Risk (%) | Pain: Affected/At Risk (%) | Palpitations: Affected/At Risk (%) | Pericardial effusion: Affected/At Risk (%) | Peripheral coldness: Affected/At Risk (%) | Platelet count decreased: Affected/At Risk (%) | Pleural effusion: Affected/At Risk (%) | Pollakiuria: Affected/At Risk (%) | Rash maculo-papular: Affected/At Risk (%) | Respiratory tract infection fungal: Affected/At Risk (%) | Respiratory tract infection: Affected/At Risk (%) | Sinus pain: Affected/At Risk (%) | Skin abrasion: Affected/At Risk (%) | Skin papilloma: Affected/At Risk (%) | Spinal compression fracture: Affected/At Risk (%) | Tachycardia: Affected/At Risk (%) | Testicular pain: Affected/At Risk (%) | Testicular swelling: Affected/At Risk (%) | Thoracic spinal stenosis: Affected/At Risk (%) | Thrombocytosis: Affected/At Risk (%) | Transfusion reaction: Affected/At Risk (%) | Type 2 diabetes mellitus: Affected/At Risk (%)
(56.25%): Upper respiratory tract infection: Affected/At Risk (%)
(6.25%): Oedema: Affected/At Risk (%) | Oesophageal ulcer: Affected/At Risk (%) | Oral candidiasis: Affected/At Risk (%) | Osteopenia: Affected/At Risk (%) | Osteoporosis: Affected/At Risk (%) | Paraesthesia: Affected/At Risk (%) | Peripheral sensory neuropathy: Affected/At Risk (%) | Phlebitis: Affected/At Risk (%) | Photophobia: Affected/At Risk (%) | Pneumonia respiratory syncytial viral: Affected/At Risk (%) | Proteinuria: Affected/At Risk (%) | Pseudomonas infection: Affected/At Risk (%) | Pulmonary mass: Affected/At Risk (%) | Rash erythematous: Affected/At Risk (%) | Rash pustular: Affected/At Risk (%) | Rash: Affected/At Risk (%) | Red blood cells urine positive: Affected/At Risk (%) | Renal failure: Affected/At Risk (%) | Respiratory syncytial virus infection: Affected/At Risk (%) | Restless legs syndrome: Affected/At Risk (%) | Rosacea: Affected/At Risk (%) | Skin lesion: Affected/At Risk (%) | Stomatitis: Affected/At Risk (%) | Superior vena cava syndrome: Affected/At Risk (%) | Tendonitis: Affected/At Risk (%) | Thrombocytopenia: Affected/At Risk (%) | Tinea pedis: Affected/At Risk (%) | Tooth fracture: Affected/At Risk (%) | Tremor: Affected/At Risk (%) | Ulcerative keratitis: Affected/At Risk (%)
